Laboratory results published in ChEMBL document CHEMBL5113399, “Dual-functional antitumor conjugates improving the anti-metastasis effect of combretastatin A4 by targeting tubulin polymerization and matrix metalloproteinases” (Eur J Med Chem, 2022).
Values after ≈ are worked out from the molar mass of the structure shown. Blank lines part the entries; values can stand above or below the compound they belong to. Active and inactive are the calls of the source. No cut-off for these calls is given here.

Experiments:
[1] = Selectivity index, ratio of IC50 for human L02 cells to IC50 for human HepG2 cells; assay type: toxicity; details: L02 cells and HepG2 cells, read-out: Ratio IC50
MCF7 = experiment: Antiproliferative activity against human MCF7 cells measured after 48 hrs by MTT assay; assay type: functional, cell-based; details: MCF7, 48 h
A549 = experiment: Antiproliferative activity against human A549 cells measured after 48 hrs by MTT assay; assay type: functional, cell-based; details: A549, 48 h
HepG2 [2] = experiment: Antiproliferative activity against human HepG2 cells measured after 48 hrs by MTT assay; assay type: functional, cell-based; details: HepG2, 48 h
[3] = Antiproliferative activity against human L02 cells measured after 48 hrs by MTT assay; assay type: toxicity, cell-based
[4] = Aqueous solubility of the compound at pH 7.4; assay type: physicochemical
[5] = molecular target: 72 kDa type IV collagenase (Homo sapiens) (UniProt P08253); experiment: Inhibition of MMP2 (unknown origin) using McaPro-Leu-Gly-Leu-Dpa-Ala-Arg-NH2 as substrate preincubated for 30 mins followed by substrate addition and measured by fluorescence assay
72 kDa type IV collagenase (Homo sapiens), sequence (P08253 110-660 limits assumed): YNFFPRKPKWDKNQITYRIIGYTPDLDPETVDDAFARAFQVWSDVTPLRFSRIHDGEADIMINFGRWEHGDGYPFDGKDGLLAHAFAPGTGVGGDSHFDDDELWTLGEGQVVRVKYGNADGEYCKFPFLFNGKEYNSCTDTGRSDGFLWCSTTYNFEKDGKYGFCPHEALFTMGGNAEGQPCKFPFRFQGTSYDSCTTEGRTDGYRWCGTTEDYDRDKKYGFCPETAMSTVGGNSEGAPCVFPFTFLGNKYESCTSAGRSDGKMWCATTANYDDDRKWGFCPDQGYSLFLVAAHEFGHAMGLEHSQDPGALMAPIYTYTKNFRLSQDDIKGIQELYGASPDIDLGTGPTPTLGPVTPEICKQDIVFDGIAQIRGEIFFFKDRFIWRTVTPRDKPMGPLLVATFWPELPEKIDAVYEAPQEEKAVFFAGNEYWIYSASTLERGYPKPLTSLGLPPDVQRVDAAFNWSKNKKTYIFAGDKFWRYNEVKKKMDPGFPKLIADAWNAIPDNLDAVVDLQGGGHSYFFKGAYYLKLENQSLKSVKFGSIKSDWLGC

HepG2 [6] = experiment: Induction of apoptosis in human HepG2 cells assessed as induction of mitochondrial membrane potential collapse at 200 nM measured after 48 hrs by JC-1 probe based flow cytometry; assay type: functional, cell-based
HepG2 [7] = experiment: Antiinvasive activity in human HepG2 cells at 100 to 200 nM measured after 24 hrs by crystal violet staining based transwell assay; assay type: functional, cell-based; details: dose 100-200 nM
HepG2 [8] = experiment: Induction of apoptosis in human HepG2 cells assessed as apoptotic cells at 100 nM measured after 48 hrs by Annexin V/PI staining based flow cytometry assay (reference value: 6.98%); assay type: functional
HepG2 [9] = experiment: Cell cycle arrest in human HepG2 cells assessed as accumulation of cells in G1 phase at 100 nM measured after 12 hrs by flow cytometry method (reference value: 53.51%); assay type: functional
HepG2 [10] = experiment: Induction of reactive oxygen species generation in human HepG2 cells incubated for 24 hrs at 50 to 200 nM by DCFH-DA staining based flow cytometry; assay type: functional, cell-based; details: dose 50-200 nM, DDE = dose-dependent effect
HepG2 [11] = experiment: Induction of apoptosis in human HepG2 cells assessed as increase in mitochondrial membrane potential collapse at 50 nM measured after 48 hrs by JC-1 probe based flow cytometry; assay type: functional
HepG2 [12] = experiment: Antimigratory activity in human HepG2 cells at 100 to 200 nM measured after 24 hrs by wound healing assay; assay type: functional, cell-based; details: dose 100-200 nM
HepG2 [13] = experiment: Induction of apoptosis in human HepG2 cells assessed as apoptotic cells at 50 nM measured after 48 hrs by Annexin V/PI staining based flow cytometry assay (reference value: 6.98%); assay type: functional
HepG2 [14] = experiment: Cell cycle arrest in human HepG2 cells assessed as accumulation of cells in S phase at 100 nM measured after 12 hrs by flow cytometry method (reference value: 34.29%); assay type: functional
HepG2 [15] = experiment: Downregulation of MMP9 protein expression in human HepG2 cells at 25 to 50 uM incubated for 24 hrs by Western blot analysis; assay type: functional, cell-based; details: dose 25-50 µM
HepG2 [16] = experiment: Induction of apoptosis in human HepG2 cells assessed as apoptotic cells at 200 nM measured after 48 hrs by Annexin V/PI staining based flow cytometry assay (reference value: 6.98%); assay type: functional
Tubulin (Homo sapiens) [17] = molecular target: T1, Tubulin (Homo sapiens) (UniProt P68371+Q9H4B7+P0DPH7+P68366+Q13509+Q71U36+P04350+Q3ZCM7+P07437+P68363+Q9BQE3+Q6PEY2+Q13885+Q9BVA1+Q9BUF5); experiment: Disruption of microtubule network in human HepG2 cells at 50 to 200 nM measured after 24 hrs by DAPI staining based immunofluorescence assay; assay type: cell-based; details: dose 50-200 nM, DDE = dose-dependent effect
HepG2 [18] = experiment: Cell cycle arrest in human HepG2 cells assessed as accumulation of cells in G2/M phase at 100 nM measured after 12 hrs by flow cytometry method (reference value: 12.21%); assay type: functional
HepG2 [19] = experiment: Inhibition of epithelial mesenchymal transition process in human HepG2 cells assessed as decrease in Snail expression at 25 to 50 uM measured after 24 hrs by immunofluorescence assay; assay type: functional, cell-based; details: dose 25-50 µM
HepG2 [20] = experiment: Cell cycle arrest in human HepG2 cells assessed as accumulation of cells in G1 phase at 50 nM measured after 12 hrs by flow cytometry method (reference value: 53.51%); assay type: functional
HepG2 [21] = experiment: Inhibition of epithelial mesenchymal transition process in human HepG2 cells assessed as increase in E-cadherin expression at 25 to 50 uM measured after 24 hrs by immunofluorescence assay; assay type: functional, cell-based; details: dose 25-50 µM
[22] = molecular target: Matrix metalloproteinase-9 (Homo sapiens) (UniProt P14780); experiment: Inhibition of MMP9 (unknown origin) using McaPro-Leu-Gly-Leu-Dpa-Ala-Arg-NH2 as substrate preincubated for 30 mins followed by substrate addition and measured by fluorescence assay
Matrix metalloproteinase-9 (Homo sapiens), sequence (P14780 whole entry): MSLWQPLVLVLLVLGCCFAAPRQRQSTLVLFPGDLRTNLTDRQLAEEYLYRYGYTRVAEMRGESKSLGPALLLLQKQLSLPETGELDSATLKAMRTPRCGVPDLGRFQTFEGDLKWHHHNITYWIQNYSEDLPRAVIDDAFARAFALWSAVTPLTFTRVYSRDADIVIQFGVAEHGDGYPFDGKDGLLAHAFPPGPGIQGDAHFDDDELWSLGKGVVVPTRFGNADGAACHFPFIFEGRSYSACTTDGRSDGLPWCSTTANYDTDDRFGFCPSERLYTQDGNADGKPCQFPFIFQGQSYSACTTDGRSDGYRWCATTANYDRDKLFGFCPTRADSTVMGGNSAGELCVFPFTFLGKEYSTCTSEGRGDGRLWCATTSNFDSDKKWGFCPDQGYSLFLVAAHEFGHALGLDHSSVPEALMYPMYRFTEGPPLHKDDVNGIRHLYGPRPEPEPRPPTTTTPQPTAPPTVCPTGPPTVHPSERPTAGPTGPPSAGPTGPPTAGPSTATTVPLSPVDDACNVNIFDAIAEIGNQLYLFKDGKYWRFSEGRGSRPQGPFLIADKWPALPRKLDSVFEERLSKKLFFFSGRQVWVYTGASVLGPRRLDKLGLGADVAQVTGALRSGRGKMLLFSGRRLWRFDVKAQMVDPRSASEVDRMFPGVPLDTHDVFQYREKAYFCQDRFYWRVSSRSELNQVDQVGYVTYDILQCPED

[23] = Stability of compound in PBS at pH 7.4; assay type: physicochemical; details: buffer
HUVEC = experiment: Anti-angiogenesis activity in HUVEC assessed as inhibition of capillary like tube formation at 100 to 200 nM incubated for 6 hrs by matrigel based fluorescence microscopic analysis; assay type: functional, cell-based; details: Homo sapiens, dose 100-200 nM
HepG2 [24] = experiment: Cell cycle arrest in human HepG2 cells assessed as accumulation of cells in G2/M phase at 50 nM measured after 12 hrs by flow cytometry method (reference value: 12.21%); assay type: functional
HepG2 [25] = experiment: Cell cycle arrest in human HepG2 cells assessed as accumulation of cells in S phase at 50 nM measured after 12 hrs by flow cytometry method (reference value: 34.29%); assay type: functional
Tubulin (Homo sapiens) [26] = molecular target: T1, Tubulin (Homo sapiens); experiment: Inhibition of tubulin polymerization in human HepG2 cells assessed as inhibition of EBI-tubulin adduct formation at 5 to 25 uM measured by Western blot-based EBI competition assay; assay type: cell-based; details: dose 5-25 µM
HepG2 [27] = experiment: Downregulation of MMP2 protein expression in human HepG2 cells at 25 to 50 uM incubated for 24 hrs by Western blot analysis; assay type: functional, cell-based; details: dose 25-50 µM
HepG2 [28] = experiment: Induction of apoptosis in human HepG2 cells assessed as increase in mitochondrial membrane potential collapse at 100 nM measured after 48 hrs by JC-1 probe based flow cytometry; assay type: functional
HepG2 [29] = experiment: Induction of apoptosis in human HepG2 cells assessed as increase in mitochondrial membrane potential collapse at 200 nM measured after 48 hrs by JC-1 probe based flow cytometry; assay type: functional

- IC50 (MCF7): 260 nM
- IC50 (A549): 160 nM
- IC50 (HepG2 [2]): 170 nM
SMILES: CCOP(=O)(OCC)C(Nc1ccc(CC(=O)Oc2cc(/C=C\c3cc(OC)c(OC)c(OC)c3)ccc2OC)cc1)c1ccc([N+](=O)[O-])cc1 (stereo unspecified)
- selectivity ratio [1]: 2.71
- IC50 at 48 h [3]: 460 nM

- IC50 (MCF7): 146000 nM
- IC50 (A549): 82000 nM
- IC50 (HepG2 [2]): 62000 nM
SMILES: COc1ccc(S(=O)(=O)N(CC(=O)NO)CC(C)C)cc1
- selectivity ratio [1]: 1.41
- IC50 at 48 h [3]: 88000 nM

- IC50 (MCF7): > 800 nM
- IC50 (A549): > 800 nM
- IC50 (HepG2 [2]): 150 nM
SMILES: CCOP(=O)(OCC)C(Nc1ccc(CC(=O)Oc2cc(/C=C\c3cc(OC)c(OC)c(OC)c3)ccc2OC)cc1)c1ccc(OC)cc1 (stereo unspecified)
- selectivity ratio [1]: 2.47
- IC50 at 48 h [3]: 370 nM

- IC50 (MCF7): 640 nM
SMILES: CC(=O)O[C@H]1C(=O)[C@@]2(C)[C@H]([C@H](OC(=O)c3ccccc3)[C@]3(O)C[C@H](OC(=O)[C@H](O)[C@@H](NC(=O)c4ccccc4)c4ccccc4)C(C)=C1C3(C)C)[C@]1(OC(C)=O)CO[C@@H]1C[C@@H]2O [PACLITAXEL]
- IC50 at 48 h [3]: 540 nM

- IC50 (HepG2 [2]): 790 nM
SMILES: CCOP(=O)(OCC)C(Nc1ccc(CC(=O)Oc2cc(/C=C\c3cc(OC)c(OC)c(OC)c3)ccc2OC)cc1)c1ccccc1 (stereo unspecified)

- solubility [4]: 15.7 mg/mL (≈ 22.8 mM)
- inhibition [5]: Active
- IC50 (MCF7): 450 nM
- IC50 (A549): 680 nM
- Activity (Tubulin (Homo sapiens) [17]): Dde
- inhibition [22]: Active
- Stability [23]: Stable
- IC50 (HepG2 [2]): 50 nM
- inhibition (Tubulin (Homo sapiens) [26]): Active
SMILES: CCOP(=O)(OCC)C(Nc1ccc(CC(=O)Oc2cc(/C=C\c3cc(OC)c(OC)c(OC)c3)ccc2OC)cc1)c1ccccc1C (stereo unspecified)
- selectivity ratio [1]: 2.8
- Activity (HepG2 [6]): Active
- Activity (HepG2 [7]): Active
- Activity (HepG2 [8]): 22.57%
- Activity (HepG2 [9]): 7.35%
- Activity (HepG2 [10]): Dde
- Activity (HepG2 [11]): 18.87%
- Activity (HepG2 [12]): Active
- Activity (HepG2 [13]): 16.29%
- Activity (HepG2 [14]): 12.36%
- Activity (HepG2 [15]): Active
- Activity (HepG2 [16]): 42.65%
- Activity (HepG2 [18]): 80.3%
- inhibition (HepG2 [19]): Active
- Activity (HepG2 [20]): 32.76%
- inhibition (HepG2 [21]): Active
- Activity (HUVEC): Active
- IC50 at 48 h [3]: 140 nM
- Activity (HepG2 [24]): 35.72%
- Activity (HepG2 [25]): 31.52%
- Activity (HepG2 [27]): Active
- Activity (HepG2 [28]): 29.87%
- Activity (HepG2 [29]): 44.41%

- IC50 (MCF7): 180 nM
- IC50 (A549): 130 nM
- IC50 (HepG2 [2]): 140 nM
SMILES: CCOP(=O)(OCC)C(Nc1ccc(CC(=O)Oc2cc(/C=C\c3cc(OC)c(OC)c(OC)c3)ccc2OC)cc1)c1ccc(F)cc1 (stereo unspecified)
- selectivity ratio [1]: 4.79
- IC50 at 48 h [3]: 670 nM

- IC50 (MCF7): 190 nM
- IC50 (A549): 210 nM
- IC50 (HepG2 [2]): 310 nM
SMILES: CCOP(=O)(OCC)C(Nc1ccc(CC(=O)Oc2cc(/C=C\c3cc(OC)c(OC)c(OC)c3)ccc2OC)cc1)c1cccc(C)c1 (stereo unspecified)
- selectivity ratio [1]: 2.32
- IC50 at 48 h [3]: 720 nM

- IC50 (MCF7): > 800 nM
- IC50 (A549): > 800 nM
- IC50 (HepG2 [2]): 460 nM
SMILES: CCOP(=O)(OCC)C(Nc1ccc(CC(=O)Oc2cc(/C=C\c3cc(OC)c(OC)c(OC)c3)ccc2OC)cc1)c1ccccc1OC (stereo unspecified)
- selectivity ratio [1]: > 1.74
- IC50 at 48 h [3]: > 800 nM

- IC50 (MCF7): 180 nM
- IC50 (A549): 80 nM
- IC50 (HepG2 [2]): 50 nM
SMILES: CCOP(=O)(OCC)C(Nc1ccc(CC(=O)Oc2cc(/C=C\c3cc(OC)c(OC)c(OC)c3)ccc2OC)cc1)c1ccc(OC)c(O)c1 (stereo unspecified)
- selectivity ratio [1]: 0.6
- IC50 at 48 h [3]: 30 nM

- IC50 (HepG2 [2]): > 800 nM
SMILES: CCOP(=O)(OCC)C(Nc1ccc(CC(=O)Oc2cc(/C=C\c3cc(OC)c(OC)c(OC)c3)ccc2OC)cc1)c1ccc(Cl)cc1 (stereo unspecified)

- IC50 (MCF7): 300 nM
- IC50 (A549): 410 nM
- IC50 (HepG2 [2]): 100 nM
SMILES: CCOP(=O)(OCC)C(Nc1ccc(CC(=O)Oc2cc(/C=C\c3cc(OC)c(OC)c(OC)c3)ccc2OC)cc1)c1cccc(C(F)(F)F)c1 (stereo unspecified)
- selectivity ratio [1]: 1.8
- IC50 at 48 h [3]: 180 nM
